Literature values in patent US20230040901A1, “PHARMACEUTICAL COMPOSITION FOR INHIBITING POSTOPERATIVE ADHESIONS” (PlantTec Medical GmbH, priority 2018, published 2023).

How the values were obtained:
postoperative adhesions [1] = settings: clinical application in 400 abdominal surgeries
postoperative adhesions [2] = settings: 2% to 4% citrate in water or saline solution, 60 experiments on rabbits

O=C(O)CC(O)(CC(=O)O)C(=O)O [citrate]
Development of adhesions (postoperative adhesions [1]): clear improvement | Adhesions (postoperative adhesions [2]): fewer adhesions
